Laboratory results from the SangsterLogP compilation.

Row | SMILES | logP
1 | Clc1ccc(Cl)c(-c2c(Cl)ccc(Cl)c2Cl)c1Cl | 6.27
2 | Clc1cccc(-c2c(Cl)c(Cl)cc(Cl)c2Cl)c1Cl | 6.42
3 | Clc1cc(Cl)c(-c2cc(Cl)c(Cl)cc2Cl)c(Cl)c1 | 6.46
4 | Clc1cc(Cl)cc(-c2c(Cl)cc(Cl)c(Cl)c2Cl)c1 | 6.68
5 | Clc1ccc(-c2c(Cl)c(Cl)c(Cl)c(Cl)c2Cl)cc1 | 6.87
6 | Clc1ccc(-c2cc(Cl)c(Cl)c(Cl)c2Cl)c(Cl)c1 | 6.8
7 | Clc1cc(Cl)c(-c2cc(Cl)c(Cl)c(Cl)c2)c(Cl)c1 | 6.74
8 | Clc1cc(Cl)c(Cl)c(-c2cc(Cl)c(Cl)cc2Cl)c1 | 6.71
9 | Clc1cc(Cl)cc(-c2cc(Cl)c(Cl)c(Cl)c2Cl)c1 | 7.01
10 | Clc1ccc(-c2c(Cl)ccc(Cl)c2Cl)c(Cl)c1Cl | 6.61
11 | Clc1cc(Cl)c(Cl)c(-c2cc(Cl)cc(Cl)c2Cl)c1 | 6.63
12 | Clc1cc(Cl)c(Cl)c(-c2cc(Cl)c(Cl)c(Cl)c2)c1 | 7.02
13 | Clc1cc(Cl)c(-c2c(Cl)ccc(Cl)c2Cl)cc1Cl | 6.46

Results, then the molecule that gave them:

Row | logP | SMILES
14 | 6.45 | Clc1cc(Cl)c(-c2cc(Cl)cc(Cl)c2Cl)c(Cl)c1
15 | 6.31 | Clc1cc(Cl)c(-c2c(Cl)ccc(Cl)c2Cl)c(Cl)c1
16 | 6.43 | Clc1cccc(-c2c(Cl)cc(Cl)c(Cl)c2Cl)c1Cl
17 | 6.68 | Clc1cc(Cl)cc(-c2c(Cl)c(Cl)cc(Cl)c2Cl)c1
18 | 6.52 | Clc1ccc(-c2c(Cl)c(Cl)cc(Cl)c2Cl)c(Cl)c1
19 | 6.49 | Clc1ccccc1-c1c(Cl)c(Cl)c(Cl)c(Cl)c1Cl
20 | 6.1 | Clc1cc(Cl)c(Cl)c(-c2c(Cl)cccc2Cl)c1Cl
21 | 6.5 | Clc1cc(-c2c(Cl)cccc2Cl)c(Cl)c(Cl)c1Cl
22 | 6.79 | Clc1cc(Cl)c(Cl)c(-c2ccc(Cl)c(Cl)c2Cl)c1
23 | 6.41 | Clc1cc(Cl)c(Cl)c(-c2c(Cl)ccc(Cl)c2Cl)c1
24 | 6.84 | Clc1cccc(-c2c(Cl)c(Cl)c(Cl)c(Cl)c2Cl)c1
25 | 6.28 | Clc1cc(Cl)c(-c2c(Cl)cccc2Cl)c(Cl)c1Cl
